We go through seven compounds from US8710252B2, “Hepodxilin analog enantiomers” (priority 2006, dated 2014).

For this assay, the target named is T1, Ga14-DBD-PPAR gamma-LBD fusion protein (Homo sapiens, UniProt P37231).
T1 construct: expressed in transfected cells; host or cells: mouse embryonic fibroblasts (MEFs) or ME3 cells
T1 sequence (P37231 238-503 limits assumed): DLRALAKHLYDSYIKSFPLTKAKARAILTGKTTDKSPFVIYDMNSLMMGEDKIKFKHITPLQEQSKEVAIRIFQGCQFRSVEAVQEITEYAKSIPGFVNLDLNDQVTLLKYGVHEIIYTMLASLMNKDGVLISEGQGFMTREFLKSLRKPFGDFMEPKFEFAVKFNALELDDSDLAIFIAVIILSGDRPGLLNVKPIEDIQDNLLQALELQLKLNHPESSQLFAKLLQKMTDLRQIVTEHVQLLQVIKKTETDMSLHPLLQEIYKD
Briefly: PPAR gamma transactivation assay (Gal4-PPAR gamma LBD / UASx4-TK-luc reporter). It counts as cell-based. An excerpt: The UASx4-TK-luc reporter construct (where UAS refers to “upstream activator sequence”) contains four Ga14-responsive elements. The plasmid Ga14-PPAR gammaLBD encodes a Ga14-DBD-PPAR gamma-LBD fusion protein (i.e. the DNA-binding domain, DBD, of Ga14 fused to the ligand-binding domain, LBD, of PPAR gamma) capable of transactivating the UASx4-TK-luc reporter plasmid by binding to the UAS. The CMV-beta-galactosidase plasmid (where CMV is cytomegalovirus) was used for normalization of experimental values.
The cells were replated, typically in 24 well plates, so that at the time of transfection the cells were 50-70% confluent.
Briefly, per well in a 24 well plate, UASx4TKIuc (0.2 microg) Ga14-PPAR gammaLBD (or pM-hPPAR gamma-LBD; 0.1 microg) and CMV-beta-galactosidase (0.05 microg) in 30 μL DMEM (free of serum and antibiotics) was mixed with 30 microL DMEM (free of serum and antibiotics) containing 1 microL metafectenein. The mixture was incubated at room temperature for 20 min to allow formation of nucleic acid-lipid complexes and then approximately 60 micros was added to each well containing the 50-70% confluent cells. […] Cells were harvested after 12-24 hours and luciferase and beta-galactosidase activities were measured according to standard protocols.
Each experiment was carried out with triplicate samples with 0.1, 1 or 10 microM racemate or purified enantiomer.

SMILES strings stand for the structures. Entries after “also recorded” stand apart in the source; their conditions may differ.

Take `CCCCC/C=C\CC1CC1/C=C/C(O)C/C=C\CCCC(=O)OC` (stereo not drawn) [Compound E, 8R-hydroxy-11S,12S-cyclopropyl-eicosa-5Z,9E,14Z-trienoic acid methyl ester]: the “PPAR Activation as % of positive control (Avandia)” value (shortened to “PPAR Activation as %”) by setting is: (Experiment 1, 0.1 microM) 5 +/− 1 % of positive control (Avandia); (Experiment 1, 1 microM) 11 +/− 1 % of positive control (Avandia); (Experiment 1, 10 microM) 55 +/− 8 % of positive control (Avandia); (Experiment 2, 0.1 microM) 4 +/− 1 % of positive control (Avandia); (Experiment 2, 1 microM) 4 +/− 1 % of positive control (Avandia); (Experiment 2, 10 microM) 14 +/− 2 % of positive control (Avandia). The “PPAR Activation as %” value reads like this: (Experiment 3, 0.1 microM) 7 +/− 3 % of positive control (Avandia); (Experiment 3, 1 microM) 11 +/− 2 % of positive control (Avandia); (Experiment 3, 10 microM) 27 +/− 7 % of positive control (Avandia).
In the case of `CCCCC/C=C\C[C@@H]1C[C@H]1/C=C/[C@@H](O)C/C=C\CCCC(=O)OC` [Compound F, 8S-hydroxy-11R,12R-cyclopropyl-eicosa-5Z,9E,14Z-trienoic acid methyl ester], the “PPAR gamma transactivation, result in words” value (“PPAR gamma transactivation” below) is “significantly more activity than Compound E or the racemic mixture of PBT-1; also recorded: significantly better PPAR gamma transactivation activity; also recorded: higher fold PPAR gamma transactivation than compound E or the PBT-1 racemic mixture”. Also, the “PPAR Activation as %” value (Experiment 1, 0.1 microM) is 7 +/− 1 % of positive control (Avandia). For the same compound, where the note is “Experiment 1, 1 microM”, the “PPAR Activation as %” value was 12 +/− 7 % of positive control (Avandia). For the setting “Experiment 1, 10 microM”, the “PPAR Activation as %” value was 92 +/− 7 % of positive control (Avandia). Also, the “PPAR Activation as %” value (Experiment 2, 0.1 microM) was 5 +/− 1 % of positive control (Avandia). Also, the “PPAR Activation as %” value (Experiment 2, 1 microM) is reported as 5 +/− 5 % of positive control (Avandia). The “PPAR Activation as %” value (Experiment 2, 10 microM) is given as 69 +/− 12 % of positive control (Avandia). Besides, under “Experiment 3, 0.1 microM”, the “PPAR Activation as %” value was 8 +/− 2 % of positive control (Avandia). Besides, the “PPAR Activation as %” value (Experiment 3, 1 microM) is 18 +/− 5 % of positive control (Avandia). Where the note is “Experiment 3, 10 microM”, the “PPAR Activation as %” value is on record as 78 +/− 34 % of positive control (Avandia).
Take `CCCCC/C=C\CC1CC1/C=C/C(O)C/C=C\CCCC(=O)OC` (stereo not shown) [PBT-1, 8-hydroxy-11,12-cyclopropyl-eicosa-5Z,9E,14Z-trienoic acid methyl ester, reference compound]: the “PPAR Activation as %” value was 21 +/− 2 % of positive control (Avandia) (10 microM racemate, Table 3); 17 +/− 2 % of positive control (Avandia) (Experiment 1, 0.1 microM); 57 +/− 6 % of positive control (Avandia) (Experiment 1, 1 microM); 7 +/− 1 % of positive control (Avandia) (Experiment 2, 0.1 microM); 35 +/− 5 % of positive control (Avandia) (Experiment 2, 1 microM); 6 +/− 2 % of positive control (Avandia) (Experiment 3, 0.1 microM). In addition, the “PPAR Activation as %” value (Experiment 3, 1 microM) is listed as 34 +/− 2 % of positive control (Avandia) and the “PPAR Activation as %” value (Experiment 3, 10 microM) is reported as 58 +/− 12 % of positive control (Avandia).
Turning to `CCCCC/C=C\CC1CC1/C=C/C(O)C/C=C\CCCC(=O)O` (stereo not shown) [PBT-01, 8-hydroxy-11,12-cyclopropyl-eicosa-5Z,9E,14Z-trienoic acid, reference compound], the “PPAR gamma transactivation” value is “active”. The “PPAR Activation as %” value (10 microM racemate, Table 3) is given as 16 +/− 4 % of positive control (Avandia).
On to `CCCCC/C=C\CC1CC1/C=C/C(O)C/C=C\CCCC(=O)OC` (stereo not shown) [PBT-2, 8-hydroxy-11,12-cyclopropyl-eicosa-5Z,9E,14Z-trienoic acid methyl ester, reference compound], for which, under “10 microM racemate, Table 3”, the “PPAR Activation as %” value was 27 +/− 5 % of positive control (Avandia).
Consider `CCCCC/C=C\CC1CC1/C=C/C(O)C/C=C\CCCC(=O)O` (stereo not shown) [PBT-02, 8-hydroxy-11,12-cyclopropyl-eicosa-5Z,9E,14Z-trienoic acid, reference compound], for which the “PPAR gamma transactivation” value is “active”. The “PPAR Activation as %” value (10 microM racemate, Table 3) is given as 17 +/− 2 % of positive control (Avandia).
On the same counts, the results for `CCCCC/C=C\CC1CC1C(O)/C=C\C/C=C\CCCC(=O)O` (stereo not shown) [PBT-03, 10-hydroxy-11,12-cyclopropyl-eicosa-5Z,8Z,14Z-trienoic acid, reference compound] are “active” and 14 +/− 4 % of positive control (Avandia).
